From patent US20240366701A1, “EXTRACT OF MYROTHAMNUS SP FOR PROMOTING HAIR GROWTH” (Lubrizol Advanced Materials, Inc., priority 2021, published 2024) come the findings set out here.

Assay [1] deals with Human Umbilical Vein Endothelial cells (HUVEC). In words: In vitro new blood vessel (tube-like structure) formation. In kind it is cell-based. Particulars: 5 ng/ml, 4 h, respect basal condition. An excerpt:
Hair follicles get nourishment from blood flow in the skin having hair. Optimal irrigation of hair follicle increases its nourishment and stimulates the generation of new hair and improves hair growth and strength. Compounds able to generate new blood vessels in the hair follicle are good candidates for the cosmetic treatment of eyelash growth and strength. In vitro assessment of new blood vessels formation involves measurement of the ability of endothelial cells to form three-dimensional tube-like structures. Human Umbilical Vein Endothelial cells (HUVEC) mediate specific connections with extracellular matrix components generating differential forces which induces morphological changes and migration of HUVEC, leading to the formation of tube-like structures. The aim of this study is to evaluate the efficacy of the compound of the invention to generate new blood vessel tubes by means of measuring the ability of endothelial cells to form three-dimensional tube-like structures.
A 96 well plate is pre-coated with cold Extracellular Matrix Solution (Angiogenesis Assay kit, PromoKine) and incubated for 1 hour at 37° C. After the incubation, HUVEC cells are seeded in pre-coated wells at a density of 15,000 cells/well. Immediately, cells are treated with the stock solution of Example 2 dissolved in medium achieving a final well concentration of 0.5% (v/v). Vascular endothelial growth factor (VEGF) is used as positive control at a final well concentration of 5 ng/ml and cells treated with medium alone are used as a basal control. Cells are treated for 4 hours at 37° C. in 5% CO2 humidified air and then are stained with Staining Dye (Angiogenesis Assay kit, PromoKine) according to the manufacturer's protocol. Briefly, cells are washed and then Staining Dye solution was added. After a 30 minutes incubation at 37° C. in 5% CO2 humidified air, fluorescence images are captured using Operetta® confocal microscope (PerkinElmer, Inc) and new tubes formation is evaluated by ImageJ software.
New blood vessel tube formation is evaluated by the measurement of different parameters in each image acquired. […] Afterwards, the software quantifies more complex structures: • Segment length: number of pixels of each segment detected. • Master segment number: number of segments delimited by junctions without branch connection. • Master junction number: number of junctions which link at least three master segments. • Number of meshes: number of elements delimited by segments or master segments.
To consider an increase in new blood vessel tube formation, more than one of the parameters measured needs to be increased.
Results herein are the different measured parameters expressed as percentage normalized by basal condition.

The subject of assay [2] is Human Epidermal Keratinocyte cells (HEK). Kind of assay: In vitro proliferation assay on keratinocyte cells (PrestoBlue). The assay is classed as cell-based. Particulars: test concentration 10 (%, v/v), 24 h, negative control = 100.00. How it is done: Human Epidermal Keratinocyte cells (HEK) are grown to a density of 4500 cells/cm^2 in keratinocyte growth medium at 37° C. in 5% CO2 humidified air during 7 days. After this time, they are split and then seeded for treatment.
HEK are seeded at a density of 70000 cells/mL of culture medium in 96-well Cell Carrier black plates (PerkinElmer) in culture medium. After 24 hours incubation at 37° C. in 5% CO2 humidified air, medium is removed and fresh culture medium with dilutions of the test products. Cells treated with medium alone are used as negative control. Epidermal Growth Factor (EGF) is used as a positive control. After 24 hours incubation, live and dead cells are quantified with PrestoBlue® Cell Viability Reagent.
HEK quantification is quantified by fluorescence by using cell permeable resazurin-based solution PrestoBlue® from Thermo Fisher Scientific.
Stock solution of Example 1 and 2 are assayed in 3 independent experiments including 4 replicates in each experiment.

In the case of VEGF, in assay [1], the “% of number of master junctions (Mean ± SEM)” value turned out to be 183.1 ± 31.1%, the “% of number of master segments (Mean ± SEM)” value worked out at 196.5 ± 36.5%, the “% of number of meshes (Mean ± SEM)” value amounted to 288.6 ± 75.9% and the “% of total segment length (Mean ± SEM)” value worked out at 160.1 ± 21.9%.
Turning to “Positive control (EGF): Epidermal Growth Factor used as a positive control”, in assay [2], the “Cell growth MEAN normalized with respect to the negative control” value is 94.41.
